The record followed here is ChEMBL document CHEMBL1201862, “PubChem BioAssay data set” (2004).

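Where inhibition never reached the appropriate level, the endpoint shown equals the highest concentration tested. Otherwise, values were interpolated linearly from a five-concentration, 48-hour dose response in 96-well plates. Here, GI50 denotes the concentration required for 50% inhibition of growth.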 Activity calls are given as the source filed them. Cut-off read from the data, not from the text of the source: active = GI50 up to about 1.1 µM and inactive = higher. Some results are limits rather than exact numbers.

Some test systems named below: MDA-N; SK-MEL-28; OVCAR-4; EKVX; A498; ACHN; LOX IMVI; MCF7; UO-31; MOLT-4; SF-539; UACC-62; HOP-62; CCRF-CEM; OVCAR-3; NCI-H522; SK-MEL-2; SN12C; K562; PC-3.
Holding throughout (assay): NCI tumour cell line growth inhibition, 48 h

Regarding `COC(=O)[C@H]1COC(=O)N1`, the GI50 in the assay on MDA-N, in the assay with SK-MEL-28, with OVCAR-4, in the assay on EKVX, in the assay on A498 and in the assay on ACHN was > 100 µM (inactive) each time. Also, the GI50 with LOX IMVI, in the assay with MCF7, in the assay on UO-31, with MOLT-4, in the assay on SF-539 and in the assay on UACC-62 was > 100 µM (inactive) each time. Besides, the GI50 in the assay with HOP-62, in the assay on CCRF-CEM, with OVCAR-3, in the assay on NCI-H522, in the assay on SK-MEL-2 and in the assay on SN12C was > 100 µM (inactive) in each case. In the assay on K562, the GI50 is > 100 µM (inactive).

Take `CC(Br)C(=O)c1ccc2cc(Br)c3ccccc3c2c1` (configuration not stated): the GI50 with MDA-N was 12.9 µM (inactive); in the assay with SK-MEL-28, 18.6 µM (inactive); with OVCAR-4 it was 16.7 µM (inactive); with EKVX, 14.4 µM (inactive); with A498, 18.7 µM (inactive); in the assay with ACHN it was 17.6 µM (inactive). Moreover, the GI50 is 6.79 µM (inactive) with LOX IMVI; 14.9 µM (inactive) in the assay on MCF7; 17.6 µM (inactive) with UO-31; 15.4 µM (inactive) in the assay with UACC-62; 17.2 µM (inactive) in the assay on HOP-62; 2.45 µM (inactive) in the assay with CCRF-CEM. For the same compound, the GI50 in the assay with OVCAR-3 was 12.1 µM (inactive); in the assay on NCI-H522 it was 3.97 µM (inactive); in the assay on SK-MEL-2, 13.2 µM (inactive); in the assay on SN12C, 7.01 µM (inactive); with K562, 4.18 µM (inactive).

In the case of `Cc1c2c3ccccc3nc-2n(C)c2ccccc12`, the GI50 is 2.72 µM (inactive) in the assay on MDA-N; 3.42 µM (inactive) in the assay with SK-MEL-28; 2.43 µM (inactive) in the assay on EKVX; 0.611 µM (active) in the assay with ACHN; 1.41 µM (inactive) with MCF7; 1.79 µM (inactive) with UO-31. The GI50 was 0.339 µM (active) with MOLT-4; 2.99 µM (inactive) in the assay with SF-539; 1.7 µM (inactive) in the assay on UACC-62; 3.78 µM (inactive) in the assay with HOP-62; 0.724 µM (active) with CCRF-CEM; 1.77 µM (inactive) with OVCAR-3. For the same compound, the GI50 was 2.17 µM (inactive) in the assay with PC-3, 1.64 µM (inactive) with SN12C and 1.3 µM (inactive) in the assay on K562.

For the compound `COc1cc2c[n+]3c4c(c2c(OC)c1OC)CCCC4CC3` (configuration not stated), the GI50 with MDA-N, in the assay on SK-MEL-28, in the assay with OVCAR-4, in the assay on EKVX, in the assay on A498 and in the assay on ACHN was > 100 µM (inactive) each time. The GI50 with UO-31 is > 100 µM (inactive); with MOLT-4 it was > 100 µM (inactive); in the assay with UACC-62, > 100 µM (inactive); in the assay on HOP-62 it was > 100 µM (inactive); in the assay with CCRF-CEM, 35.3 µM (inactive); with OVCAR-3, 66.5 µM (inactive). The GI50 in the assay on NCI-H522 was 30.8 µM (inactive); in the assay on PC-3 it was > 100 µM (inactive); in the assay on SK-MEL-2, > 100 µM (inactive); in the assay with K562, 62.4 µM (inactive).

In the case of `Cn1c(=O)c2nc[nH]c2n(C)c1=O` [THEOPHYLLINE], the GI50 with MDA-N, with SK-MEL-28, with EKVX, in the assay on ACHN, in the assay on LOX IMVI and with MCF7 was > 100 µM (inactive) in each case. The GI50 with UO-31, in the assay on MOLT-4, in the assay with HOP-62, in the assay on CCRF-CEM, in the assay on OVCAR-3 and with NCI-H522 was > 100 µM (inactive) throughout. For the same compound, the GI50 with PC-3, in the assay with SK-MEL-2, in the assay on SN12C and in the assay on K562 was > 100 µM (inactive) each time.

Regarding `COc1cc(O)c2c(c1)OCC(Cc1ccc(O)cc1)C2=O` (configuration not stated), the GI50 in the assay on MDA-N is > 100 µM (inactive); in the assay with SK-MEL-28, > 100 µM (inactive); with OVCAR-4, 86.3 µM (inactive); in the assay with A498, 36.1 µM (inactive); with ACHN it was > 100 µM (inactive); in the assay with LOX IMVI it was > 100 µM (inactive). Further, the GI50 in the assay on UO-31, in the assay with MOLT-4, in the assay on SF-539, in the assay with UACC-62, in the assay with HOP-62 and in the assay on CCRF-CEM was > 100 µM (inactive) in each case. The GI50 was 60.4 µM (inactive) in the assay with OVCAR-3; > 100 µM (inactive) in the assay with NCI-H522; > 100 µM (inactive) in the assay on PC-3; > 100 µM (inactive) with SK-MEL-2; > 100 µM (inactive) in the assay with SN12C; > 100 µM (inactive) in the assay with K562.

`O=c1c(C(c2cnc3ccccc3c2)c2c(O)oc3ccccc3c2=O)c(O)oc2ccccc12`: the GI50 in the assay with MDA-N was 21.4 µM (inactive); with SK-MEL-28 it was 25.9 µM (inactive); in the assay on OVCAR-4, 33.7 µM (inactive); in the assay with EKVX, 99.3 µM (inactive); in the assay on A498, 92.5 µM (inactive); with LOX IMVI, 40.1 µM (inactive). Further, the GI50 is 29.4 µM (inactive) in the assay with UO-31; 27.7 µM (inactive) with MOLT-4; 17.6 µM (inactive) with UACC-62; 46.5 µM (inactive) in the assay with HOP-62; 55.1 µM (inactive) with CCRF-CEM; 91.8 µM (inactive) in the assay on OVCAR-3. The GI50 with NCI-H522 was 36.1 µM (inactive); with PC-3, 48.5 µM (inactive); in the assay with SK-MEL-2 it was 47.2 µM (inactive); with SN12C, 25.5 µM (inactive); in the assay on K562 it was 35.4 µM (inactive).

On to `O=[N+]([O-])C(=C/C1CCCCC1)/C(=C\C1CCCCC1)[N+](=O)[O-]`, for which the GI50 with SK-MEL-28 is 5.06 µM (inactive); in the assay on OVCAR-4 it was 18.9 µM (inactive); with EKVX it was 9.4 µM (inactive); with A498 it was 15.3 µM (inactive); with ACHN, 3.5 µM (inactive); in the assay on LOX IMVI, 2.12 µM (inactive). For the same compound, the GI50 was 5.3 µM (inactive) in the assay with MCF7; 7.87 µM (inactive) with UO-31; 1.56 µM (inactive) in the assay on MOLT-4; 2.18 µM (inactive) in the assay on SF-539; 5.7 µM (inactive) with UACC-62; 3.71 µM (inactive) in the assay with HOP-62. In addition, the GI50 is 2.62 µM (inactive) with CCRF-CEM; 9.23 µM (inactive) in the assay on OVCAR-3; 1.8 µM (inactive) in the assay with NCI-H522; 6.32 µM (inactive) in the assay on PC-3; 16.3 µM (inactive) in the assay with SK-MEL-2; 3.24 µM (inactive) in the assay with SN12C. Further, in the assay on K562, the GI50 was 4.49 µM (inactive).

For the compound `O=c1[nH]c(=O)c2c([nH]1)[nH]c1ccc(Br)cc12`, the GI50 in the assay on MDA-N is > 100 µM (inactive); in the assay with EKVX, > 100 µM (inactive); in the assay on A498, > 100 µM (inactive); in the assay with ACHN, 70 µM (inactive); in the assay with LOX IMVI, > 100 µM (inactive); with MCF7, 69 µM (inactive). Further, the GI50 was 56.9 µM (inactive) in the assay on UO-31; > 100 µM (inactive) in the assay on SF-539; > 100 µM (inactive) in the assay with UACC-62; > 100 µM (inactive) with HOP-62; 82.2 µM (inactive) in the assay with CCRF-CEM; > 100 µM (inactive) in the assay with NCI-H522. For the same compound, the GI50 with SK-MEL-2 and in the assay on SN12C was > 100 µM (inactive) each time.

On to `Oc1cc2c(cc1C(c1ccc3c(c1)OCO3)N1CCN(C(c3ccc4c(c3)OCO4)c3cc4c(cc3O)OCO4)CC1)OCO2` (configuration not stated), for which the GI50 was 2.83 µM (inactive) in the assay on SK-MEL-28; 4.36 µM (inactive) in the assay on OVCAR-4; 35.2 µM (inactive) in the assay on EKVX; 13.7 µM (inactive) in the assay on ACHN; 3.24 µM (inactive) in the assay with LOX IMVI; 27.2 µM (inactive) in the assay with MCF7. For the same compound, the GI50 with UO-31 is 12 µM (inactive); in the assay with MOLT-4 it was 7.08 µM (inactive); in the assay on SF-539, 16.7 µM (inactive); with UACC-62, 14.4 µM (inactive); with HOP-62 it was 21.7 µM (inactive); in the assay on OVCAR-3 it was 17.1 µM (inactive). The GI50 in the assay with NCI-H522 was 14.2 µM (inactive); with PC-3, 28.9 µM (inactive); in the assay on SK-MEL-2, 19.5 µM (inactive); in the assay with SN12C, 16 µM (inactive); with K562 it was 21.4 µM (inactive).

As for `NC(=O)Nc1c([N+](=O)[O-])cc(C(F)(F)F)cc1[N+](=O)[O-]`, the GI50 in the assay on SK-MEL-28 is > 100 µM (inactive); with OVCAR-4 it was 63.1 µM (inactive); with EKVX it was > 100 µM (inactive); in the assay with A498 it was > 100 µM (inactive); in the assay on ACHN it was > 100 µM (inactive); in the assay with LOX IMVI, 44.7 µM (inactive). For the same compound, the GI50 in the assay on UO-31 was > 100 µM (inactive); in the assay with MOLT-4, > 100 µM (inactive); in the assay with SF-539 it was > 100 µM (inactive); with UACC-62 it was 19.4 µM (inactive); with HOP-62 it was > 100 µM (inactive); with CCRF-CEM it was > 100 µM (inactive). In addition, the GI50 with OVCAR-3 is 28.8 µM (inactive); in the assay with NCI-H522 it was 32.6 µM (inactive); in the assay with SK-MEL-2, > 100 µM (inactive); in the assay on SN12C, > 100 µM (inactive); in the assay on K562 it was 56.2 µM (inactive).

Regarding `CCSC1(SCC)CC(Cc2ccc(OC)cc2)N(/C=N/C(C)(C)C)C1` (configuration not stated), the GI50 is 35.8 µM (inactive) in the assay on SK-MEL-28; 29.7 µM (inactive) in the assay with OVCAR-4; 27 µM (inactive) with EKVX; 33.6 µM (inactive) with A498; 32.5 µM (inactive) in the assay with ACHN; 15.1 µM (inactive) in the assay on LOX IMVI. In addition, the GI50 in the assay with UO-31 was 17.3 µM (inactive); in the assay on MOLT-4 it was 14.7 µM (inactive); in the assay with SF-539, 54.5 µM (inactive); in the assay with UACC-62, 19.1 µM (inactive); in the assay with HOP-62 it was 56.9 µM (inactive); with CCRF-CEM it was 15.2 µM (inactive). For the same compound, the GI50 in the assay on OVCAR-3 is 27.8 µM (inactive); in the assay on NCI-H522, 15 µM (inactive); with SK-MEL-2 it was 33.1 µM (inactive); in the assay with SN12C, 25 µM (inactive); in the assay with K562 it was 17.8 µM (inactive).
